This assay deals with T1, ubiquitin specific protease 1 (USP1) (Homo sapiens, UniProt O94782).
T1 construct: recombinant USP1/UAF1 complex; with UAF1
As to the kind of experiment: Ub-AMC deubiquitinase activity assay with purified recombinant USP1/UAF1. In kind it is biochemical.

Each structure is given as a SMILES string.

T1 sequence (O94782 whole entry): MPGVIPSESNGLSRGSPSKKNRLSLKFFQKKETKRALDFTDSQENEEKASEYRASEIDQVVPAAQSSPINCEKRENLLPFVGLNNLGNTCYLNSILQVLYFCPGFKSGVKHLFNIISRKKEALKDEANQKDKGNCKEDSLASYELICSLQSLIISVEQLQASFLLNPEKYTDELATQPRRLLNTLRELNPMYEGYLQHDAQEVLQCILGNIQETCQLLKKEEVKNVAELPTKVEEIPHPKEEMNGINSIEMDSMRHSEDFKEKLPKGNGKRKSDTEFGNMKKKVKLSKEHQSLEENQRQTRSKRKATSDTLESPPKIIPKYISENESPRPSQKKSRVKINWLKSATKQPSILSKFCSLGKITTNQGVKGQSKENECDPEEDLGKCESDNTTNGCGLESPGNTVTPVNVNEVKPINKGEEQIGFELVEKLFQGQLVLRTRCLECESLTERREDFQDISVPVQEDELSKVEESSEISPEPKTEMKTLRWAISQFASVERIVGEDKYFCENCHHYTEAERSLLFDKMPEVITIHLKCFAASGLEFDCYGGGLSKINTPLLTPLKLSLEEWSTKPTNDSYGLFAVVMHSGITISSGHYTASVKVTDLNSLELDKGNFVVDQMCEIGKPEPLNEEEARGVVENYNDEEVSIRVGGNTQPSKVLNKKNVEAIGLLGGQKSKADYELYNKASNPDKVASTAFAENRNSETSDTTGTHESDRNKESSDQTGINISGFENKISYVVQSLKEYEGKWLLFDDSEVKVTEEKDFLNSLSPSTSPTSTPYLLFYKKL
T1 sequence (Q8TAF3 whole entry partner): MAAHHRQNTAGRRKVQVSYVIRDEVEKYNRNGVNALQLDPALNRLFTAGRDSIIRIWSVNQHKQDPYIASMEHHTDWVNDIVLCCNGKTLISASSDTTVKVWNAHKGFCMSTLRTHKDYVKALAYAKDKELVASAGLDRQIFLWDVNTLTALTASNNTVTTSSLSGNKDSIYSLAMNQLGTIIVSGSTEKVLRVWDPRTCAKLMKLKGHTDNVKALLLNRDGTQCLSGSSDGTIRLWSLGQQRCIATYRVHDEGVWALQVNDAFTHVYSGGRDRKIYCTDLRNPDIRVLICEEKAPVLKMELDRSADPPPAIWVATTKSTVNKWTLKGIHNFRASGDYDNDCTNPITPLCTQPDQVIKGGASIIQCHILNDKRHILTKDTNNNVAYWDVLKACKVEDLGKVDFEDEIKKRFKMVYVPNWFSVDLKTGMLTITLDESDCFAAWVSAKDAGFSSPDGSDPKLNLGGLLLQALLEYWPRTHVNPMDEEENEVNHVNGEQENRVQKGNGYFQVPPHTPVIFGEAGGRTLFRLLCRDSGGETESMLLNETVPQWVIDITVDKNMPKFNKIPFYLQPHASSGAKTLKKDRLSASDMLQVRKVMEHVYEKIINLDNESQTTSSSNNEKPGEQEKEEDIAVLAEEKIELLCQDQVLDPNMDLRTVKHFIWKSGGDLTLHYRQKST

`COc1cc(NC(C)CCCN)c2ncccc2c1` (stereo not shown) [PD, Primaquine diphosphate]: the concentration for half-maximal inhibition (IC50) (commonly the concentration that inhibits the measured activity by half) is 25.4 µM.

Values taken from publication PMC8211987, “Primaquine Diphosphate, a Known Antimalarial Drug, Blocks Vascular Leakage Acting Through Junction Stabilization” (Frontiers in Pharmacology, 2021).
